# Laboratory results taken from patent US7932270B2 (Cytokinetics, Inc., priority 2006, dated 2011).
# Target: T1, chicken gizzard smooth muscle myosin subfragment-1 chemically crosslinked to cardiac or skeletal actin (Gallus gallus, UniProt P10587)
# T1 construct: chicken gizzard smooth muscle myosin subfragment-1; from tissue; host or cells: chicken gizzard
# Experiment: Smooth muscle myosin ATPase dose response assay (pyruvate kinase/horseradish peroxidase/pyruvate oxidase-coupled, amplex red fluorescence)
# Format: biochemical
# Conditions: read-out: IC50 Arithmetic Mean
# Procedure, shortened: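 Readout is amplex red signal from coupled ATPase of actin-crosslinked gizzard myosin S1 (0.15 mM ATP, 12 mM K-PIPES, pH 7.00). IC50 is the half-maximal activity point of a four-parameter Hill fit.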
# T1 sequence (P02607 2-151): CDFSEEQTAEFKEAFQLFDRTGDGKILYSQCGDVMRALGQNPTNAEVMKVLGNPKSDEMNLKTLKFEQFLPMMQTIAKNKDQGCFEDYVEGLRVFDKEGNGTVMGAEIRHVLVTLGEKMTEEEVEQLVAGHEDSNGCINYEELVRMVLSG
# T1 sequence (P10587 84-789): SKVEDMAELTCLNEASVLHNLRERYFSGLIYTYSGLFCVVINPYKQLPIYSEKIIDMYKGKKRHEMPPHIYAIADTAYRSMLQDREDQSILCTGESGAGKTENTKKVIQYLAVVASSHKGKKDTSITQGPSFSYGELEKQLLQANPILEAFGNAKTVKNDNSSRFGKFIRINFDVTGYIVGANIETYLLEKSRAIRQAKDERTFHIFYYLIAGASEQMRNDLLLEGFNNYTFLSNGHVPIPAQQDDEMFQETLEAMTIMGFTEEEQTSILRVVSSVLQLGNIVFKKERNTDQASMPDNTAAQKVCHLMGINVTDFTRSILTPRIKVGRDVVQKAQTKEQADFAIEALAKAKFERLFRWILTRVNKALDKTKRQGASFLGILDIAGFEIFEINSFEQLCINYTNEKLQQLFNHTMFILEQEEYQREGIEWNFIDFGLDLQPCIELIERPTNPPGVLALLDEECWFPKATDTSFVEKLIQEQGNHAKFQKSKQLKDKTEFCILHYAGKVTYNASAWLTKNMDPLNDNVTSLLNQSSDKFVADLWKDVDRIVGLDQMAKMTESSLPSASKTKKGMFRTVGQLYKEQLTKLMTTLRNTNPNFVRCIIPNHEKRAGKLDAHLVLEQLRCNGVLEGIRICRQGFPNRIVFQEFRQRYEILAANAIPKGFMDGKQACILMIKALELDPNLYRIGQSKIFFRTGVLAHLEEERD
row,IC50 [nM],SMILES
1,109,CC(=O)[C@H](C)CNC(=O)c1cc(F)c(-c2cnn(C)c2)nc1NCCc1cccc(F)c1 [N-((2R)-2-methyl-3-oxobutyl)(5-fluoro-2-{[2-(3-fluorophenyl)ethyl]amino}-6-(1-methylpyrazol-4-yl)(3-pyridyl))carboxamide]
2,65,O=C(NCc1cccnc1NCCO)c1ccc(-c2cn[nH]c2)nc1NCCc1cccc(F)c1 [(2-{[2-(3-fluorophenyl)ethyl]amino}-6-pyrazol-4-yl(3-pyridyl))-N-({2-[(2-hydroxyethyl)amino](3-pyridyl)}methyl)carboxamide]
3,12900,CNC(=O)[C@H](N)CCNC(=O)c1ccc(-c2ccccc2C#N)nc1NCCc1cccc(F)c1 [(2R)-2-amino-4-[(6-(2-cyanophenyl)-2-{[2-(3-fluorophenyl)ethyl]amino}(3-pyridyl))carbonylamino]-N-methylbutanamide]
4,21,N#Cc1ccccc1-c1ccc(C(=O)NCc2ccno2)c(NCCc2cccc(F)c2)n1 [(6-(2-cyanophenyl)-2-{[2-(3-fluorophenyl)ethyl]amino}(3-pyridyl))-N-(isoxazol-5-ylmethyl)carboxamide]
5,66600,N#Cc1ccccc1-c1ccc(C(=O)NCc2ccc(N3CCCC3)nc2)c(NCCc2cccc(F)c2)n1 [(6-(2-cyanophenyl)-2-{[2-(3-fluorophenyl)ethyl]amino}(3-pyridyl))-N-[(6-pyrrolidinyl(3-pyridyl))methyl]carboxamide]
6,15,N#Cc1ccccc1-c1ccc(C(=O)NCc2cc[nH]n2)c(NCCc2cccc(F)c2)n1 [(6-(2-cyanophenyl)-2-{[2-(3-fluorophenyl)ethyl]amino}(3-pyridyl))-N-(pyrazol-3-ylmethyl)carboxamide]
7,17300,C[C@@H](CNc1nc(-c2ccccc2)ccc1C(=O)NCc1cccnc1)c1ccccc1 [{2-[((2R)-2-phenylpropyl)amino]-6-phenyl(3-pyridyl)}-N-(3-pyridylmethyl)carboxamide]
8,2690,Cn1cc(-c2ccc(C(=O)NCc3ccn(CCCN)n3)c(NCCc3cccc(F)c3)n2)cn1 [N-{[1-(3-aminopropyl)pyrazol-3-yl]methyl}(2-{[2-(3-fluorophenyl)ethyl]amino}-6-(1-methylpyrazol-4-yl)(3-pyridyl))carboxamide]
9,41,"N#Cc1ccccc1-c1ccc(C(=O)NCc2cccnc2)c(NCCc2cc(F)cc(F)c2)n1 [(2-{[2-(3,5-difluorophenyl)ethyl]amino}-6-(2-cyanophenyl)(3-pyridyl))-N-(3-pyridylmethyl)carboxamide]"
10,8660,"O=C(NCc1cccnc1)c1ccc(-c2nccs2)nc1NCCc1ccccn1 [{2-[(2-(2-pyridyl)ethyl)amino]-6-(1,3-thiazol-2-yl)(3-pyridyl)}-N-(3-pyridylmethyl)carboxamide]"
11,1240,N#Cc1ccc(CNC(=O)c2ccc(-c3ccccc3)nc2NCCc2cccc(F)c2)cn1 [N-[(6-cyano(3-pyridyl))methyl](2-{[2-(3-fluorophenyl)ethyl]amino}-6-phenyl(3-pyridyl))carboxamide]
12,426,Cc1ccc(CNC(=O)c2ccc(-c3ccccc3C#N)nc2NCCc2cccc(F)c2)cn1 [(6-(2-cyanophenyl)-2-{[2-(3-fluorophenyl)ethyl]amino}(3-pyridyl))-N-[(6-methyl(3-pyridyl))methyl]carboxamide]

# Second part, the compound before the results:
row,SMILES,IC50 [nM]
1,CNC(=O)CNC(=O)c1cc(F)c(-c2cn[nH]c2)nc1NCCc1cccc(F)c1 [2-[(5-fluoro-2-{[2-(3-fluorophenyl)ethyl]amino}-6-pyrazol-4-yl(3-pyridyl))carbonylamino]-N-methylacetamide],65
2,C[C@H](CNC(=O)c1cc(F)c(-c2cnn(C)c2)nc1NCCc1cccc(F)c1)NC(=O)CN,76
3,Cn1cc(-c2nc(NCCc3cccc(F)c3)c(C(=O)NC[C@H]3CCCN3C(=O)CCCNC(=O)OC(C)(C)C)cc2C#N)cn1 [N-[((2R)-1-{4-[(tert-butoxy)carbonylamino]butanoyl}pyrrolidin-2-yl)methyl](5-cyano-2-{[2-(3-fluorophenyl)ethyl]amino}-6-(1-methylpyrazol-4-yl)(3-pyridyl))carboxamide],1610
4,N#Cc1ccccc1-c1ccc(C(=O)NCc2cncc(CO)c2)c(NCCc2cccc(F)c2)n1 [(6-(2-cyanophenyl)-2-{[2-(3-fluorophenyl)ethyl]amino}(3-pyridyl))-N-{[5-(hydroxymethyl)(3-pyridyl)]methyl}carboxamide],81
5,CC(C)(C)OC(=O)N[C@H](CO)C(=O)N1CC[C@@H]1CNC(=O)c1ccc(-c2ccccc2C#N)nc1NCCc1cccc(F)c1 [N-[(1R)-2-((2R)-2-{[(6-(2-cyanophenyl)-2-{[2-(3-fluorophenyl)ethyl]amino}(3-pyridyl))carbonylamino]methyl}azetidinyl)-1-(hydroxymethyl)-2-oxoethyl](tert-butoxy)carboxamide],439
6,O=C(NCc1cccnc1)c1ccc(-c2ccccn2)nc1NCCc1ccccn1 [N-(3-pyridylmethyl){6-(2-pyridyl)-2-[(2-(2-pyridyl)ethyl)amino](3-pyridyl)}carboxamide],5380
7,CC(C)(C)OC(=O)NCc1ncccc1CNC(=O)c1cc(F)c(-c2ccccn2)nc1NCCc1cccc(F)c1 [N-[(2-{[(tert-butoxy)carbonylamino]methyl}(3-pyridyl))methyl](5-fluoro-2-{[2-(3-fluorophenyl)ethyl]amino}-6-(2-pyridyl)(3-pyridyl))carboxamide],3660
8,Cn1cc(-c2ccc(C(=O)NC[C@H]3CCC(=O)N3)c(NCCc3cccc(F)c3)n2)cn1 [N-[((2R)-5-oxopyrrolidin-2-yl)methyl](2-{[2-(3-fluorophenyl)ethyl]amino}-6-(1-methylpyrazol-4-yl)(3-pyridyl))carboxamide],156
9,"Cc1cccc(-c2ccc(C(=O)NCc3cccnc3)c(NCCc3ccccn3)n2)c1C [{6-(2,3-dimethylphenyl)-2-[(2-(2-pyridyl)ethyl)amino](3-pyridyl)}-N-(3-pyridylmethyl)carboxamide]",6940
10,O=C(NCc1cccnc1)c1ccc(-c2ccccc2)nc1NCCCc1ccccc1 [{6-phenyl-2-[(3-phenylpropyl)amino](3-pyridyl)}-N-(3-pyridylmethyl)carboxamide],5690
11,"CC1(C)OCC(CNC(=O)c2ccc(-c3ccccc3C#N)nc2NCCc2cccc(F)c2)CO1 [N-[(2,2-dimethyl(1,3-dioxan-5-yl))methyl](6-(2-cyanophenyl)-2-{[2-(3-fluorophenyl)ethyl]amino}(3-pyridyl))carboxamide]",1020
12,N#Cc1ccccc1-c1ccc(C(=O)NC[C@H]2CCCC(=O)N2CCCN)c(NCCc2cccc(F)c2)n1 [N-{[(2R)-1-(3-aminopropyl)-6-oxo(2-piperidyl)]methyl}(6-(2-cyanophenyl)-2-{[2-(3-fluorophenyl)ethyl]amino}(3-pyridyl))carboxamide],26
13,C[C@@H](CNC(=O)CO)CNC(=O)c1cc(F)c(-c2cnn(C)c2)nc1NCCc1cccc(F)c1 [N-{(2R)-3-[(5-fluoro-2-{[2-(3-fluorophenyl)ethyl]amino}-6-(1-methylpyrazol-4-yl)(3-pyridyl))carbonylamino]-2-methylpropyl}-2-hydroxyacetamide],105
14,"CC(=O)N1CCN(C(C)=O)[C@@H](CNC(=O)c2ccc(-c3ccccc3C#N)nc2NCCc2cccc(F)c2)C1 [N-[((2S)-1,4-diacetylpiperazin-2-yl)methyl](6-(2-cyanophenyl)-2-{[2-(3-fluorophenyl)ethyl]amino}(3-pyridyl))carboxamide]",17200
15,CN[C@H](C)CNC(=O)c1ccc(-c2ccccc2C#N)nc1NCCc1cccc(F)c1 [N-[(2R)-2-(methylamino)propyl](6-(2-cyanophenyl)-2-{[2-(3-fluorophenyl)ethyl]amino}(3-pyridyl))carboxamide],1890
16,CC(NC(=O)c1ccc(-c2ccccc2C#N)nc1NCCc1cccc(F)c1)C(N)=O (stereo not drawn),564
17,O=C(NCc1cccnc1)c1ccc(-c2ccc(C(=O)NCc3cccnc3)c(NCCc3cccc(F)c3)n2)nc1NCCc1cccc(F)c1 [[2-{[2-(3-fluorophenyl)ethyl]amino}-6-(6-{[2-(3-fluorophenyl)ethyl]amino}-5-[N-(3-pyridylmethyl)carbamoyl](2-pyridyl))(3-pyridyl)]-N-(3-pyridylmethyl)carboxamide],30600
18,O=C(NC[C@@H]1CCNC1)c1ccc(-c2ccccc2)nc1NCCc1ccccn1 [N-[((3R)pyrrolidin-3-yl)methyl]{6-phenyl-2-[(2-(2-pyridyl)ethyl)amino](3-pyridyl)}carboxamide],53600
19,O=C(NCc1ccccc1)c1ccc(-c2ccccc2)nc1NCCc1ccccn1 [N-benzyl{6-phenyl-2-[(2-(2-pyridyl)ethyl)amino](3-pyridyl)}carboxamide],1560
20,C[N+]1(C)CCC[C@@H]1CNC(=O)c1ccc(-c2ccccc2C#N)nc1NCCc1cccc(F)c1,2050
21,CC(C)(C)OC(=O)NCCCN1C(=O)CC[C@@H]1CNC(=O)c1cc(F)c(-c2cn[nH]c2)nc1NCCc1cccc(F)c1 [N-[((2R)-1-{3-[(tert-butoxy)carbonylamino]propyl}-5-oxopyrrolidin-2-yl)methyl](5-fluoro-2-{[2-(3-fluorophenyl)ethyl]amino}-6-pyrazol-4-yl(3-pyridyl))carboxamide],354
22,Cn1cc(-c2nc(NCCc3cccc(F)c3)c(C(=O)NC[C@H]3CCCN3C(=O)CCCO)cc2F)cn1 [N-{[(2R)-1-(4-hydroxybutanoyl)pyrrolidin-2-yl]methyl}(5-fluoro-2-{[2-(3-fluorophenyl)ethyl]amino}-6-(1-methylpyrazol-4-yl)(3-pyridyl))carboxamide],245
23,N#Cc1ccccc1-c1ccc(C(=O)NCc2cccnc2)c(NCCc2cccs2)n1 [{6-(2-cyanophenyl)-2-[(2-(2-thienyl)ethyl)amino](3-pyridyl)}-N-(3-pyridylmethyl)carboxamide],29
24,N#Cc1ccccc1-c1ccc(C(=O)NC[C@H]2CCCN2C(=O)CCCN)c(NCCC2CCCCO2)n1 (stereo partly drawn),2040
